Measurements: ChEMBL document CHEMBL4825709 (J Med Chem, 2021)
Values after ≈ are worked out from the molar mass of the structure shown.

Assays:
physchem [1] = conditions: buffer, pH 7.4, logD
physchem [2] = test: physchem
physchem [3] = conditions: FaSSIF, pH 6.5
[4] = Solubility of compound in pH 7.4 by charged aerosol detection method; format: physicochemical; conditions: buffer
[5] = AUC (0 to infinity) in Wistar Han rat at 1 mg/kg, iv measured up to 24 hrs by LC-MS/MS analysis; format: ADME, organism-based; design: route intravenous, dose 1 mg/kg, time <=24; conditions: in vivo
[6] = Half life in Wistar Han rat at 1 mg/kg, iv measured up to 24 hrs by LC-MS/MS analysis; format: ADME, organism-based; conditions: in vivo
[7] = Clearance in Wistar Han rat at 1 mg/kg, iv measured up to 24 hrs by LC-MS/MS analysis; format: ADME, organism-based; conditions: in vivo
[8] = Intrinsic clearance in rat hepatocytes at 0.5 uM measured after 60 mins by LC-MS/MS analysis; format: ADME, cell-based, Hepatocyte; conditions: 1 h
[9] = Intrinsic clearance in human hepatocytes at 0.5 uM measured after 120 mins by LC-MS/MS analysis; format: ADME, cell-based, Hepatocyte; conditions: 2 h
[10] = Intrinsic clearance in dog hepatocytes at 0.5 uM measured after 120 mins by LC-MS/MS analysis; format: ADME, cell-based, Canis lupus familiaris, Hepatocyte; conditions: 2 h
[11] = Volume of distribution at steady state in Wistar Han rat at 1 mg/kg, iv measured up to 24 hrs by LC-MS/MS analysis; format: ADME, organism-based; conditions: in vivo, read-out: Vdss
[12] = Cmax in Wistar Han rat at 3 mg/kg, po measured up to 24 hrs by LC-MS/MS analysis; format: ADME, organism-based; design: route oral, dose 3 mg/kg, time <=24; conditions: in vivo
[13] = Tmax in Wistar Han rat at 3 mg/kg, po measured up to 24 hrs by LC-MS/MS analysis; format: ADME, organism-based; conditions: in vivo
[14] = AUC (0 to infinity) in Wistar Han rat at 3 mg/kg, po measured up to 24 hrs by LC-MS/MS analysis; format: ADME, organism-based; design: route oral, dose 3 mg/kg, time <=24; conditions: in vivo
[15] = Oral bioavailability in Wistar Han rat at 3 mg/kg measured up to 24 hrs by LC-MS/MS analysis; format: ADME, organism-based; conditions: in vivo
[16] = buffer, pH 7.4

Row | Structure (SMILES) | logD (physchem [1]) | solubility (physchem [2]) [µg/mL] | further results
1 | CNC(=O)C(C(C)C)N(CC(c1ccccc1)c1ccccc1)C(=O)c1cc(C)c(=O)n(C)c1 (configuration not stated) | 4.9 | 105 (≈ 228 µM) | solubility at 16 h (physchem [3]): 60 µg/mL (≈ 131 µM)
2 | CNC(=O)CN(CC(CC1CCOCC1)c1ccccc1)C(=O)c1cc(C)c(=O)n(C)c1 (configuration not stated) | 2.4 | – | –
3 | CNC(=O)CN(CC(c1ccccc1)n1ccnc1)C(=O)c1cc(C)c(=O)n(C)c1 (configuration not stated) | 1.45 | – | –
4 | CNC(=O)C(C)N(CC(c1ccccc1)c1cccnc1)C(=O)c1cc(C)c(=O)n(C)c1 (configuration not stated) | 1.9 | – | –
5 | Cc1cc(C(=O)N(CC(c2ccccc2)c2ccccc2)C(C)C2CCCO2)cn(C)c1=O (configuration not stated) | 5.1 | 108 (≈ 243 µM) | solubility at 16 h (physchem [3]): 21 µg/mL (≈ 47.2 µM)
6 | CCNC(=O)C(C)N(CC(c1ccccc1)c1ccccc1)C(=O)c1cc(C)c(=O)n(C)c1 (configuration not stated) | 4.3 | – | –
7 | CCOC(CN(CC(=O)NC)C(=O)c1cc(C)c(=O)n(C)c1)c1ccccc1 (configuration not stated) | 2.7 | – | –
8 | CNC(=O)C(C)N(CC(c1ccccc1)c1ccncc1)C(=O)c1cc(C)c(=O)n(C)c1 (configuration not stated) | 1.7 | – | –
9 | CNC(=O)CN(CC(c1ccccc1)c1ccccc1)C(=O)c1cc(C)c(=O)n(C)c1 | 3.4 | 163 (≈ 390 µM) | –
10 | CNC(=O)CN(CC(c1ccccc1)C(C)C)C(=O)c1cc(C)c(=O)n(C)c1 (configuration not stated) | 3.3 | – | –
11 | CCC(C(=O)NC)N(CC(c1ccccc1)c1ccccc1)C(=O)c1cc(C)c(=O)n(C)c1 (configuration not stated) | 4.3 | – | solubility at 16 h (physchem [3]): 150 µg/mL (≈ 337 µM)
12 | CNC(=O)C1(N(CC(c2ccccc2)c2ccccc2)C(=O)c2cc(C)c(=O)n(C)c2)CCCC1 | 4.7 | – | solubility at 16 h (physchem [3]): 132 µg/mL (≈ 280 µM)
13 | CNC(=O)C(C)N(CC(O)(c1ccccc1)c1ccccc1)C(=O)c1cc(C)c(=O)n(C)c1 (configuration not stated) | 2.9 | – | –
14 | CNC(=O)[C@H](C)N(CC(c1ccccc1)c1ccccc1)C(=O)c1cc(C)c(=O)n(C)c1 | – | > 163 | –
15 | CNC(=O)C(C)N(CC(c1ccccc1)c1ccccc1)C(=O)c1cc(OC)c(=O)n(C)c1 (configuration not stated) | 3.3 | 111 (≈ 248 µM) | solubility at 16 h (physchem [3]): 661 µg/mL (≈ 1480 µM)
16 | CNC(=O)C(C)(C)N(CC(c1ccccc1)c1ccccc1)C(=O)c1cc(C)c(=O)n(C)c1 | 3.7 | > 242 | –
17 | Cc1cc(C(=O)N(CC(N)=O)CC(c2ccccc2)c2ccccc2)cn(C)c1=O | 2.9 | > 175 | –
18 | Cc1cc(C(=O)N(CCN2CCOCC2)CC(c2ccccc2)c2ccccc2)cn(C)c1=O | 4.1 | > 239 | –
19 | CNC(=O)C(N(CC(c1ccccc1)c1ccccc1)C(=O)c1cc(C)c(=O)n(C)c1)C(C)(C)C (configuration not stated) | 5.4 | 93 (≈ 196 µM) | solubility at 16 h (physchem [3]): 2 µg/mL (≈ 4.22 µM)
20 | Cc1cc(C(=O)N(CC(c2ccccc2)c2ccccc2)C(C)CN2CCOCC2)cn(C)c1=O (configuration not stated) | 5.4 | > 206 | solubility at 16 h (physchem [3]): 91 µg/mL (≈ 192 µM)
21 | CNC(=O)[C@@H](C)N(CC(c1ccccc1)c1ccccc1)C(=O)c1cc(C)c(=O)n(C)c1 | – | > 211 | –
22 | CNC(=O)CN(CC(c1ccccc1)C1CCOCC1)C(=O)c1cc(C)c(=O)n(C)c1 (configuration not stated) | 2.1 | – | –
23 | CNC(=O)C(C)N(CC(c1ccccc1)c1ccccc1)C(=O)c1cc(C)c(=O)n(C)c1 (configuration not stated) | 3.7 | 213 (≈ 494 µM) | –
24 | CNC(=O)C(C1COC1)N(CC(c1ccccc1)c1ccccc1)C(=O)c1cc(C)c(=O)n(C)c1 (configuration not stated) | 3.6 | > 142 | –
25 | CCNC(=O)C(C)N(CC(c1ccccc1)c1ccccc1)C(=O)C1CCC(=O)N(C)C1 (configuration not stated) | 3.9 | – | –

Row | Structure (SMILES) | logD (physchem [1]) | solubility (physchem [2]) [µg/mL] | further results
26 | CNC(=O)C(C1CCC1)N(CC(c1ccccc1)c1ccccc1)C(=O)c1cc(C)c(=O)n(C)c1 (configuration not stated) | 4.9 | 161 (≈ 341 µM) | –
27 | CNC(=O)C(C1CC1)N(CC(c1ccccc1)c1ccccc1)C(=O)c1cc(C)c(=O)n(C)c1 (configuration not stated) | 4.4 | 91 (≈ 199 µM) | solubility at 16 h (physchem [3]): 30 µg/mL (≈ 65.6 µM)
28 | CNC(=O)C(C)N(CC(c1ccccc1)c1ccccc1)C(=O)c1cn(C)c(=O)c(C)n1 (configuration not stated) | 4.1 | – | solubility ([4]; read-out: solubility): > 102 µg/mL
29 | CCNC(=O)C(C)N(CC(c1ccccc1)c1ccccc1)C(=O)c1c[nH]c(=O)c(C)c1 (configuration not stated) | 3.6 | > 170 | –
30 | CNC(=O)C1(N(CC(c2ccccc2)c2ccccc2)C(=O)c2cc(C)c(=O)n(C)c2)CC1 | 4.4 | > 194 | solubility at 16 h (physchem [3]): 819 µg/mL (≈ 1850 µM)
31 | CCC(CN(CC(=O)NC)C(=O)c1cc(C)c(=O)n(C)c1)c1ccccc1 (configuration not stated) | 2.8 | – | –
32 | COCC(COC)N(CC(c1ccccc1)c1ccccc1)C(=O)c1cc(C)c(=O)n(C)c1 | 5.5 | > 186 | solubility at 16 h (physchem [3]): 78 µg/mL (≈ 174 µM)
33 | Cc1cc(C(=O)N(CC(c2ccccc2)c2ccccc2)C(C)C#N)cn(C)c1=O (configuration not stated) | 4.8 | > 157 | solubility at 16 h (physchem [3]): 13 µg/mL (≈ 32.5 µM)
34 | CNC(=O)CN(CC(c1ccccc1)c1ccccc1)C(=O)c1cc(C)c(OC)c(C)c1 | 5.7 | 114 (≈ 265 µM) | –
35 | CNC(=O)CN(CC(C)c1ccccc1)C(=O)c1cc(C)c(=O)n(C)c1 (configuration not stated) | 2.2 | – | –
36 | CNC(=O)C1(N(CC(c2ccccc2)c2ccccc2)C(=O)c2cc(C)c(=O)n(C)c2)CCC1 | 4.9 | > 150 | –
37 | CCNC(=O)C(C)N(CC(c1ccccc1)c1ccccc1)C(=O)c1ccc(=O)n(C)c1 (configuration not stated) | 3.7 | > 169 | –
38 | CNC(=O)C(C1CCOC1)N(CC(c1ccccc1)c1ccccc1)C(=O)c1cc(C)c(=O)n(C)c1 (racemic) | 4 | – | solubility ([4]; read-out: solubility): > 138 µg/mL
39 | CNC(=O)[C@H](C1CCOCC1)N(CC(c1ccccc1)c1ccccn1)C(=O)c1cc(C)c(=O)n(C)c1 (stereo in doubt) | – | – | AUC(0-inf) [5]: 340 ng·h/mL; half-life [6]: 11.4 min; clearance [7]: 50 mL/min/kg; solubility ([4]; read-out: solubility): > 231 µg/mL; CLH [8]: 3.13 mL/min/g; CLH [9]: < 0.45 mL/min/g; CLH [10]: < 0.65 mL/min/g; Vd [11]: 0.6 L/kg; Cmax [12]: 398 nM; Tmax [13]: 15 min; AUC(0-inf) [14]: 162 ng·h/mL; bioavailability [15]: 16%; logD [16]: 2.9; solubility at 16 h (physchem [3]): > 1000 µg/mL
40 | CNC(=O)C(C1CCOC1)N(CC(c1ccccc1)c1ccccc1)C(=O)c1cc(C)c(=O)n(C)c1 (stereo in doubt; 21) | – | – | solubility [4]: > 143 µg/mL; solubility at 16 h (physchem [3]): 987 µg/mL (≈ 2020 µM)
41 | CNC(=O)C(C1CCOC1)N(CC(c1ccccc1)c1ccccc1)C(=O)c1cc(C)c(=O)n(C)c1 (stereo in doubt; 22) | – | – | solubility [4]: > 185 µg/mL
42 | CNC(=O)C(C1CCOC1)N(CC(c1ccccc1)c1ccccc1)C(=O)c1cc(C)c(=O)n(C)c1 (stereo in doubt; 23) | – | – | solubility [4]: > 181 µg/mL
43 | CNC(=O)C(C1CCOC1)N(CC(c1ccccc1)c1ccccc1)C(=O)c1cc(C)c(=O)n(C)c1 (stereo in doubt; 24) | – | – | solubility [4]: > 153 µg/mL
44 | CNC(=O)C(C)N(CC(c1ccccc1)c1ccccn1)C(=O)c1cc(C)c(=O)n(C)c1 (stereo in doubt; 50) | 2.3 | – | –
45 | CNC(=O)C(C)N(CC(c1ccccc1)c1ccccn1)C(=O)c1cc(C)c(=O)n(C)c1 (stereo in doubt; 51) | – | – | logD [16]: 2.1
46 | CNC(=O)C(C)N(CC(c1ccccc1)c1ccccn1)C(=O)c1cc(C)c(=O)n(C)c1 (stereo in doubt; 56) | – | – | logD [16]: 2.7
47 | CNC(=O)C(C)N(CC(c1ccccc1)c1ccccn1)C(=O)c1cc(C)c(=O)n(C)c1 (stereo in doubt; 57) | – | – | logD [16]: 2.6
48 | CNC(=O)[C@@H](C1CCOCC1)N(CC(c1ccccc1)c1ccccn1)C(=O)c1cc(C)c(=O)n(C)c1 (stereo in doubt; 61) | 2.8 | – | –
49 | CNC(=O)[C@H](C1CCOCC1)N(CC(c1ccccc1)c1ccccn1)C(=O)c1cc(C)c(=O)n(C)c1 (stereo in doubt; 62) | 2.8 | – | –
50 | CNC(=O)[C@@H](C1CCOCC1)N(CC(c1ccccc1)c1ccccn1)C(=O)c1cc(C)c(=O)n(C)c1 (stereo in doubt; 63) | – | – | logD [16]: 2.9
